Read-outs that look alike come from different tables or passages of the source.
Assays:
E1-STS [1] = target: T1, E1-STS (Homo sapiens, UniProt P08842); conditions: compared with EMATE; cited from earlier work
T1 sequence (P08842 22-583): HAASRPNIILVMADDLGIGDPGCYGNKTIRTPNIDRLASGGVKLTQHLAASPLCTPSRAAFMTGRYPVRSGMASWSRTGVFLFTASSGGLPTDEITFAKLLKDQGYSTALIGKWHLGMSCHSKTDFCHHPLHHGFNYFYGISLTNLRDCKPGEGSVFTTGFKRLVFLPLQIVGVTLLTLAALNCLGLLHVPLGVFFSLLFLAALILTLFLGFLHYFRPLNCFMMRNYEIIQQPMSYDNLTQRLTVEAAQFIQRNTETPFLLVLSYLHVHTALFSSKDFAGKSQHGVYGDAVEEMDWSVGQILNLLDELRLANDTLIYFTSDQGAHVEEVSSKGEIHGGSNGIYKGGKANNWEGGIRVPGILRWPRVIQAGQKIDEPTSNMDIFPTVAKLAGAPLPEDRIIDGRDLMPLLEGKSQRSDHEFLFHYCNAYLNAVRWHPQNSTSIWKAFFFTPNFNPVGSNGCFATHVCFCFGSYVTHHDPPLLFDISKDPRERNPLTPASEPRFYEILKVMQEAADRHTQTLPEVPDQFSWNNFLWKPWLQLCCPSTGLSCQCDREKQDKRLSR

MCF-7 = test: Inhibition of MCF-7 cell proliferation; format: cell-based; conditions: for IC50: read-out: Concentration for 50% inhibition of MCF-7 proliferation
Method: MCF-7 breast cancer cells are seeded into multi-well culture plates at a density of 10^5 cells/well. Cells were allowed to attach and grown until about 30% confluent when they are treated as follows:
Cells are grown for 6 days in growth medium containing the COI with changes of medium/COI every 3 days. At the end of this period cell numbers were counted using a Coulter cell counter.
Inhibition of MCF-7 Cell Proliferation

[2] = cited from earlier work
E1-STS [3] = target: T1, E1-STS; design: endogenous in cells; host or cells: MCF-7; conditions: 0.1 nM; cited from earlier work
[4] = cited from earlier work; remark: listed apart in the source
steroid sulphatase = target: T2, steroid sulphatase (Homo sapiens, UniProt P08842); conditions: compared with EMATE; cited from earlier work
T2 sequence (P08842 22-583): T1 sequence (P08842 22-583)

oestrone-3-N-sulphamate
E1-STS inactivation (E1-STS [1]): weaker non-time-dependent inactivators

COc1cc2c(cc1O)CCC1C2CC[C@@]2(C)C1CC[C@@H]2OC(N)=O (some centres unmarked) [Compound 57, 2-Methoxy-estradiol-17-carbamate]
IC50 (MCF-7; Homo sapiens, MCF7): 44 µM

C[C@]12CC[C@@H]3c4ccc(OS(=O)(=O)O)cc4CC[C@H]3[C@@H]1CCC2=O [Compound E1S, oestrone sulphate]
half-life in blood [2]: 10 to 12 h

CCc1cc2c(cc1OS(N)(=O)=O)CC[C@@H]1[C@@H]2CC[C@]2(C)[C@@H](C[N+](=O)[O-])CC[C@@H]12 [Compound 23, 2-Ethyl-3-O-sulfamoyl-17β-nitromethyl-17-deoxy estrone]
% Inhibition of MCF-7 proliferation at 10 μM (MCF-7): <50%

CCc1cc2c(cc1OS(N)(=O)=O)CC[C@@H]1[C@@H]2CC[C@]2(C)[C@@H](CC)CC[C@@H]12 [Compound 11, 2-Ethyl-3-O-sulfamoyl-17-β-ethyl-17-deoxy estrone]
% Inhibition of MCF-7 proliferation at 10 μM (MCF-7): 83%

CC12CCC3c4ccc(OS(N)(=O)=O)cc4CCC3C1CCC2=O (centres unmarked) [EMATE, oestrone-3-sulphamate]
inhibition of E1-STS activity in intact MCF-7 cells (E1-STS [3]): more than 99%
oral uterotrophic activity relative to estradiol ([4]; rats, oral): 100 times

oestrone-3-S-sulphamate
E1-STS inactivation (E1-STS [1]): weaker non-time-dependent inactivators

CCc1cc2c(cc1OS(N)(=O)=O)CC[C@@H]1[C@@H]2CC[C@]2(C)[C@@H](CC(C)=O)CC[C@@H]12 [Compound 29, 2-Ethyl-3-O-sulfamoyl-17β-(2-oxopropyl) estrone]
% Inhibition of MCF-7 proliferation at 10 μM (MCF-7): 69%

CCc1cc2c(cc1OS(N)(=O)=O)CC[C@@H]1[C@@H]2CC[C@]2(C)C(CS(C)(=O)=O)CC[C@@H]12 (some centres unmarked) [Compound 8, 2-Ethyl-3-O-sulfamoyl-17-methanesulfonylmethyl estrone]
% Inhibition of MCF-7 proliferation at 10 μM (MCF-7): 79%

COc1cc2c(cc1OS(N)(=O)=O)CC[C@@H]1[C@@H]2CC[C@]2(C)[C@@H](OC(N)=O)CC[C@@H]12 [Compound 58, 2-Methoxy-3-O-sulfamoyl estradiol-17-carbamate]
IC50 (MCF-7): 1.8 µM

COc1cc2c(cc1OS(N)(=O)=O)CC[C@@H]1[C@@H]2CC[C@]2(C)C(=O)CC[C@@H]12 [2-methoxyoestrone-3-O-sulphamate]
oestrogenicity ([4]; rat, in vivo): devoid of oestrogenicity
potency as a steroid sulphatase inhibitor (steroid sulphatase): equipotent with EMATE

CCc1cc2c(cc1OS(N)(=O)=O)CC[C@@H]1[C@@H]2CC[C@]2(C)[C@@H](CCF)CC[C@@H]12 [Compound 14, 2-Ethyl-3-O-sulfamoyl-17β-(2-fluoro-ethyl)-17-deoxy estrone]
% Inhibition of MCF-7 proliferation at 10 μM (MCF-7): 89%
